According to paper PMC11763059, “GENI as an AMPK Activator Binds α and γ Subunits and Improves the Memory Dysfunction of Alzheimer’s Disease Mouse Models via Autophagy and Neuroprotection” (Antioxidants, 2025):

Columns and labels:
PC12 cells [1] = assay: Autophagy flow assay (CYTO-ID) in PC12 cells; type: cell-based; conditions: 5 mM 3-MA + 10 μM GENI + 10 μM CQ
Procedure: The experiment was carried out according to the instructions of the CYTO-ID autophagy detection kit (Enzo Biochem, New York, NY, USA). In brief, we seeded 7.5 × 10^4 PC12 cells in each well of a 24-well plate using the cell slide method. The cells were incubated for 24 h at 37 °C in a 5% CO2 incubator. The experiment was divided into control (0.5% DMSO), positive control rapamycin (Rap 500 nM + chloroquine (CQ)), GENI treated-group (10 μM GENI + 10 μM CQ), 3-MA inhibitor group (5 mM 3-MA + 10 μM CQ) and GENI + 3MA group (5 mM 3-MA + 10 μM GENI + 10 μM CQ). The optimum concentration of 3MA inhibitor was referenced in the other report. At first, 0.5 mL of serum-free DMEM (plus 1% dual anti-penicillin–streptomycin) containing 3-MA (5 mM) was used to replace the medium in two groups as well as 0.5 mL of serum-free DMEM was added in the other groups, respectively. After treating for 6 h, 0.5 mL of DMEM containing DMSO (0.5%), Rap (500 nM) + CQ (10 μM), GENI (10 μM) + CQ (10 μM), CQ (10 μM), and GENI (10 μM) + CQ (10 μM) was added into the corresponding group, respectively. After 18 h, we removed the medium and washed cells twice with 1× assay buffer containing 5% FBS. We then added CYTO-ID Green detection reagent and Hocchst 33342 nuclear stain to the cells, which were incubated at 37 °C for 45 min. After three washes with 1× assay buffer, we fixed cells with 4% paraformaldehyde for 20 min. After three washes with 1× assay buffer, we observed the cells with an upright two-photon confocal microscope (Olympus FV1000BX-51, Tokyo, Japan).

PC12 cells [2] = assay: Western blot of LC3 II/LC3 I in the autophagy flow assay; type: cell-based; conditions: 3-MA 5 mM
Procedure: (§1) Western blot analysis for p-AMPK α, AMPK α, p-mTOR, mTOR, p-ULK1, ULK1, and LC3-I/II was conducted according to the information described in the materials and methods section of Supplementary Information.
1.3. Western blot analysis.
For PC12 cell samples, we seeded 2 × 10^6 PC12 cells in each 60 mm dish containing 5 mL of DMEM and incubated the dish for 24 h. For the dose-dependent experiment of GENI, GENI (1, 3 and 10 μM) was added to the dishes and incubated for a period of time (2 hours for p-AMPK α, AMPK α, 48 hours for p-mTOR, mTOR and p-ULK1, ULK1; 8 hours for LC3-I/II). Cells were then collected, lysed using RAPI lysis buffer and centrifuged. The supernatants of each group were used as protein samples. For the protein samples of autophagy flow assay, we seeded 2 × 10^6 PC12 cells in each 60 mm dish containing 5 mL of DMEM and incubated the dish for 24 h.
The GENI, rapamycin and inhibitors, such as chloroquine and 3-MA were added according to the method of autophagy flow assay. After treatment of 18 h, cells were then collected, lysed using RAPI lysis buffer and centrifuged. […] The protein concentration was measured with a BCA assay kit (Beijing Cowin Biotech Company, Beijing, China). […] Bands were quantitatively measured using ImageJ software (National Institutes of Health, Bethesda, MD, USA).

natural aging AD mice [3] = assay: Immunohistochemistry and Western blot of brain in naturally aged AD mice; type: in vivo; conditions: Dor 2 mg/kg + GENI 25 mg/kg
Procedure: (§2) Each group had 10 mice. GENI was dissolved in ultrapure water and administered by gavage, whereas Dor was dissolved in normal saline. The pH was adjusted to pH 5 with 0.1 M hydrochloric acid to the clarified solution and administered by intraperitoneal injection. The dosing experiment also lasted 10 weeks. Animal behavioral experiments and sampling at the end of the animal experiment were performed as described above.
Firstly, the three mice of each group were subjected to heart perfusion at the end of the animal experiment, and the whole brain was removed and placed in 15 mL of 4% paraformaldehyde and stored at 4 °C for 24 h. Secondly, we changed 4% paraformaldehyde into 15% sucrose solution and stored the solution at 4 °C for 24 h. We then changed the solution to 30% sucrose solution to dehydrate for 2 days. Thirdly, the mouse brain tissue was embedded in a cryo-embedding medium, and about 80 slices with a thickness of 20 μm were cut in the hippocampus using a cryostat (Thermal Fisher, Shanghai, China). The sections of mice in each group were immunohistochemically stained with primary antibodies, such as neuronal nuclear anti gen (NeuN), ionized calcium-binding adapter molecule 1 (Iba-1), inducible nitric oxide synthase (iNOS, pro-inflammatory factors), synaptophysin (Syp), and glial fibrillary acidic protein (GFAP), and secondary antibody. The product number and usage ratios of primary and secondary antibodies are detailed in Supplementary Table S4. Finally, the sections were observed under an upright two-photon confocal microscope (Olympus BX61, Tokyo, Japan) and recorded by a camera. The pictures were digitized with ImageJ software V1.8.0.112 (National Institutes of Health, Bethesda, MD, USA).
as §1
1.3. Western blot analysis. […]
The supernatants of each group were used as protein samples. For animal samples, an appropriate amount of tissue, such as cerebral cortex and hippocampus (50–100 mg), of each group was weighed, and we added lysis buffer with 1:9 ratios. After grinding and centrifuging, the supernatants of each group were used as protein samples. The protein concentration was measured with a BCA assay kit (Beijing Cowin Biotech Company, Beijing, China). Sodium dodecyl sulphate polyacrylamide gel electrophoresis (SDS-PAGE) was used to separate proteins (15 μg), which were transferred to PVDF membranes. The membrane was incubated with primary and secondary antibodies (Supplementary Table S5 for details). Antigens were visualised using a high-sensitivity chemiluminescence detection kit (Beijing Cowin Biotech Company, Beijing, China). Bands were quantitatively measured using ImageJ software (National Institutes of Health, Bethesda, MD, USA).

natural aging AD mice [4] = assay: Behaviour tests in naturally aged mice with AD; type: in vivo
Procedure: as §2
The Y-maze is mainly used to study the spatial working memory ability of rodents. The Y-maze consisted of three equal-length arms (50 cm × 18 cm × 35 cm), and the angle between each two arms was 120 degrees. The mice were placed at the end of any arm of the Y-maze and allowed to explore freely for 8 min. The behavioral changes including the total number of entries and alternation (successively entering all three arms of the Y-maze once in turn) were recorded. Percentage altercation = alternation/(entries-2) × 100%. The Y-maze could effectively reflect the ability of animals to recognize and remember novel environments.
NOR was used to detect memory in rodents. We prepared a 40 × 40 × 40 cm square box, camera equipment, and behavioral analysis software. We chose three objects A, B, and C, where objects A and B were exactly the same, and object C was very different from objects A and B. After the start of the experiment, the mice were allowed to acclimate freely in the experimental apparatus for 10 min. Objects A and B were placed into the box, and the mice were allowed to explore for 5 min. We then recorded the exploration time and times. After 1 h, A and C or B and C were placed into the box. After letting the mice explore for 5 min, we recorded the exploration time of the original object and the new object. Discrimination index = exploration time of new objects/total exploration time × 100%.
The MWM installation consisted of a circular pool (120 cm in diameter and 50 cm in height), camera equipment, and a computer analysis system. In the first stage, the platform position was fixed, and mice were placed into the pool from any three of the four origins on the pool facing away from the pool wall. The time when it took for the mouse to find the platform within 120 s, called escape latency, was recorded. The training period lasted 4 days. The escape latency of the mice was recorded daily, and the average value was used as an index to evaluate the ability of learning and memory. On the 5th day, the platform was evacuated by the experimenter. The mice were placed against the platform into the water from any water entry point, and they were allowed to swim freely for 60 s. We then recorded the number of times that they crossed the platform.

AMPK = assay: Inhibitor experiment with Dor in PC12 cells (Western blot); type: cell-based; conditions: Dor pre-treatment then 10 μM GENI 2 h
Procedure: Firstly, 2 × 10^6 cells were added to a 60 mm Petri dish containing 5 mL of DMEM and incubated for 24 h. Secondly, the C group, GENI group, Dor group, and GENI+ Dor group were established. The dishes containing the Dor group were pre-treated with 5 μM Dor for 2 h, and the remaining groups were balanced with DMSO. The group containing 10 μM GENI was added, and the remaining groups were balanced with DMSO. After incubation for 2 h, protein extraction was performed for the Western blot experiment.

APP/PS1 mice = system: APP/PS1 mice; set-up: method as in PMID 31837991; conditions: APP/PS1 mice ref 27; cited from earlier work
[5] = Organ weights in the D-gal induced AD mice experiment; conditions: D-gal + DON 3 mg/kg, gavage 10 weeks, mean ± SEM, n 7
Text: (§3) Each group comprised 10 mice. […] Dosing lasted for 10 weeks. […] The mice were sacrificed after 10 weeks of administration.
(§4) At the end of the animal experiment, the epididymis fat, heart, liver, spleen, and kidney of the mice were removed for weighing analysis.

[6] = Serum biochemical index of D-galactose mice; conditions: D+DON 3 mg/kg, mean ± SEM, n 7
Text: as §3, §4

Cn1cnc(N)c2ncnc1-2 [3-MA, reference compound]
autophagy induced by GENI, effect of the inhibitor (PC12 cells [1]): inhibited
conversion of LC3 I to LC3 II induced by GENI, effect of the inhibitor (PC12 cells [2]): diminished

c1cc(-c2cnn3cc(-c4ccc(OCCN5CCCCC5)cc4)cnc23)ccn1 [Dor, dorsomorphin]
activation of the AMPK/mTOR/ULK1 signaling pathway by GENI in hippocampus and cortex, effect of the AMPK inhibitor (natural aging AD mice [3]): suppressed
anti-inflammation effects of GENI on activated microglia and astrocytes and iNOS expression, effect of the AMPK inhibitor (natural aging AD mice [3]): significantly suppressed
effects of GENI on APP, Tau, Aβ and p-Tau, effect of the AMPK inhibitor (natural aging AD mice [3]): inhibited
increase in neurons and synaptophysin expression in hippocampus and cortex by GENI, effect of the AMPK inhibitor (natural aging AD mice [3]): significantly diminished
GENI effects on escape latency and number of crossing platforms, effect of the AMPK inhibitor (natural aging AD mice [4]; Dor 2 mg/kg + GENI 25 mg/kg): partially reduced
improvement in cognitive function by GENI in Y maze and NOR tests, effect of the AMPK inhibitor (natural aging AD mice [4]; Dor 2 mg/kg i.p. once every 2 days + GENI 25 mg/kg): significantly decreased
phosphorylation of AMPK, ULK1, and LC3 II after GENI treatment, effect of the AMPK inhibitor (AMPK): significantly decreased

O=C(O)C1=CO[C@@H](O[C@@H]2O[C@H](CO)[C@@H](O)[C@H](O)[C@H]2O)[C@@H]2C(CO)=CC[C@H]12 [GPA, geniposidic acid]
Aβ deposition in brains (APP/PS1 mice): reduce
spatial learning and memory abilities (APP/PS1 mice): significantly improve

COc1cc2c(cc1OC)C(=O)C(CC1CCN(Cc3ccccc3)CC1)C2 (stereo not shown) [DON, donepezil]
Fat weight [5]: 0.728 ± 0.302 g
Heart weight [5]: 0.196 ± 0.048 g
Kidney weight [5]: 0.547 ± 0.034 g
Spleen weight [5]: 0.113 ± 0.015 g
ALB [6]: 24.0 ± 1.6 g/L
